According to paper PMC12196476, “New Nitrogen-, Oxygen-, and Sulfur-Containing Heterocyclic Compounds as Anti-Colon Cancer Agents: Synthesis, Multitargeted Evaluations, Molecular Docking Simulations and ADMET Predictions” (Pharmaceuticals, 2025):
Where “and” joins values, the source holds several entries; their conditions need not be identical. Identical values can stand only once.

Legend:
[1] = Cell viability, LDH release assay, normal HUVECs; settings: human, normal HUVECs, Mean % of viable cells ± SD, HUVEC
LoVo cells [2] = assay: Cell cycle assay (PI flow cytometry), LoVo; type: cell-based, human; settings: 30 µg/mL, 48 h, mean of n = 2 (Figure 1E); untreated control 11.51 ± 1.24%
Description: (§1) Cell proliferation depends on orderly progression through the phases of the cell cycle (G1−S−G2−M). Cytotoxic agents can impair the integrity of DNA, leading to checkpoint arrest at G1/S or G2/M, which subsequently blocks proliferation. To evaluate the impact of compound 3d on cell cycle distribution, colon carcinoma cells were treated with 30 µg/mL of 3d for 48 h, followed by DNA content analysis using flow cytometry. […] In contrast, in HCT-116 cells, 3d caused an accumulation in the G1 phase, reaching 60.17 ± 1.44% versus 47.37 ± 1.68% in untreated cells (Figure 1E). […]
(§2) medium served used as negative and positive controls, respectively. Percentages of viable cells […]
(§3) wells (final concentration of 100 μg/mL), compared to the negative control, and expressed as mean value (%) ± SD from two replicates. Graphing dose-response curves representing the compound […]
(§4) (HUVECs) at final concentration of 100 μg/mL . HUVECs were grown in Dulbecco’s Modified Eagle’s Medium supplemented with 10% FBS, 2 mM glutamine (Sigma Aldrich), 100 units/mL penicillin and […] streptomycin (Life Technologies; Paisley, UK).
(§5) S3.2.5. Cell cycle assay.
(§6) HCT-116 and LoVo cultures upon treatment with compound 3d. HCT-116 and LoVo carcinoma […]
(§7) μg/mL for 48 h. […] Then, cells […]
(§8) of stained cancerous cells were determined. […]
(§9) carcinoma cells treated with compound 3d was assessed using the TMRE Mitochondrial Membrane

HCT-116 cells = assay: Cell cycle assay (PI flow cytometry), HCT-116; type: cell-based, human; settings: 30 µg/mL, 48 h, mean of n = 2 (Figure 1E); untreated control 47.37 ± 1.68%
Description: as §1, §2, §3, §4, §5, §6, §7, §8, §9

LoVo cells [3] = assay: Intracellular ROS level (human ROS ELISA kit), LoVo; type: cell-based; settings: 30 µg/mL, 48 h
Description: To determine whether compound 3d induces oxidative stress, intracellular ROS levels were quantified after treatment (30 µg/mL, 48 h) using a human ROS ELISA kit.
A Human ROS ELISA Kit was used to measure the intracellular accumulation of ROS in the 3d-treated LoVo and HCT-116 cells. […]
as §2, §3, §4, §5, §6, §7
were fixed by mixing […] of 90% cold ethanol and stained with propidium iodide (PI) for 1 h at 37 °C. RNase A (10 mg/mL) was added in order to […] the ability of PI to bind only to DNA […]
S3.2.6. Annexin-V-FITC assay. […]
treatment with compound 3d. […]
as §8, §9

COc1cc(/C=N/c2ncnc3sc4c(c23)CCCC4)cc(OC)c1OC [Compound 3d, (E)-N-(5,6,7,8-Tetrahydrobenzo[4,5]thieno[2,3-d]pyrimidin-4-yl)-1-(3,4,5-trimethoxyphenyl)methanimine]
viability at 48 h, 100 µg/mL [1]: ~90% | % of Cell population, LoVo: %G2/M (LoVo cells [2]): 24.06 ± 1.32% | % of Cell population, HCT-116: %G1 (HCT-116 cells): 60.17 ± 1.44% | ROS, Fold of control, LoVo (LoVo cells [3]): 2.6 | [ROS] pg/mL ± SD, LoVo (LoVo cells [3]; control 168.6 ± 6.5, two independent experiments): 434.5 ± 20.3 pg/mL and 434.5 pg/mL
